Values of other authors as cited in patent publication US20250009787A1, “Nitric Oxide Containing Foam Formulation for Topical Medical Use” (NOxy Health Products, Inc., priority 2023, published 2025).

Experiments:
leg abscesses = settings: 200 ppm NO gas, average of 8.1 hours, 14 consecutive nights
[1] = reported to be toxic at higher concentration

Nitric oxide [NO gas]
lesion size (leg abscesses): significantly reduced in size | toxic concentration (exposure) [1]: > 200 ppm
